Reference: PMC12040169 (PLOS Biology, 2025)

Assay: in vitro
Settings: human, hela cells, % viability

Compound	viability at 28.5 h, 10 µM
O=c1[nH]nc(SCCCOc2ccc(Cl)cc2)n1C1CC1 [CBK295597]	115%
O=C(Nc1cccc2cc[nH]c12)c1cc(F)c(Cl)cc1F [CBK160080]	82.4%
CC1(C(=O)O)NC(c2ccccc2O)C2C(=O)N(Cc3ccccc3)C(=O)C21 (stereo not shown) [CBK218007]	90.6%
NC(=O)C1CCN(S(=O)(=O)c2ccc([N+](=O)[O-])cc2)CC1 [CBK261455]	87%
Cc1cc(NS(=O)(=O)c2ccc(Cl)c([N+](=O)[O-])c2)n(C)n1 [CBK067259]	96.8%
Cc1ccc(COC(CN2CCCCCC2)CN2CCCCCC2)cc1 [CBK278236C]	100%
Cc1ncccc1C(=O)N1CCN(Cc2ccccc2)CC1 [CBK200171]	97.7%
CCOc1ccccc1NC(=O)NC(=O)C1CCN(CCCc2ccc3c(c2)OCO3)CC1 [CBK034924]	88.6%
COc1ccc(CN2CCOC(C(=O)O)C2)cc1Cn1cncn1 (stereo not shown) [CBK306919]	120%
Cc1nn(CC(=O)NC2CCC2)c(=O)c2cc3sccc3n12 [CBK284110]	108%
O=S(=O)(c1ccc(-c2ccccc2)cc1)N1CCCN(Cc2ccc(F)c(C(F)(F)F)c2)CC1 [CBK063115]	98.9%
CCOc1ncccc1NC(=O)Cc1cccc(OC)c1 [CBK256406]	94.8%
Nc1nc2ccccc2n1CCOc1ccc(Cl)cc1 [CBK087352]	85.9%
CCN1CCN(C(=O)c2ccccc2N(Cc2ccccc2)S(C)(=O)=O)CC1 [CBK267028]	101%
COc1cncc(-c2cccc(NCC(c3cccnc3)N(C)C)n2)c1 (stereo not shown) [CBK037741]	93.6%
Nn1c(-c2cccs2)nc2ccccc2c1=O [CBK003650]	99.2%
CC(C)NC(=O)c1cc([C@H]2CC[C@H](CNC(=O)Cn3cccn3)CC2)nc2ccccc12 [CBK285859]	112%
Cc1ccc2c(c1)cc(C)c1nn(CC(=O)NC(C)C)c(=O)n12 [CBK283874]	83.5%
Cc1cccc(NC(=O)c2n[nH]c3ccccc23)c1 [CBK288231]	84.6%
CC1=C[C@@H](CO)[C@H](C(C)C)C[C@H]1Cc1nnc(Cc2c[nH]c3ccccc23)o1 [CBK289223]	89.1%
C/C=C/c1ccc(OCCCSc2ccc(Cl)cc2)c(OC)c1 [CBK264147]	97.5%
COc1ccc2c(-n3cncn3)ccnc2c1 [CBK025957]	90.2%

Compound	viability at 28.5 h, 10 µM
Cc1nc2ccccc2nc1COC(=O)c1ccc(S(=O)(=O)N2CCCCC2C)cc1 (stereo not shown) [CBK297932]	90.7%
COc1ccc([C@@]23CC[C@@H](NC(=O)Nc4ccc(C(C)(C)C)cc4)C[C@@H]2N(C)CC3)cc1OC [CBK036469T]	92%
CCOc1ccc(S(=O)(=O)N(CC)CC(=O)O)cc1C [CBK269770]	91.5%
Cn1c(CN2CCN(c3ccc(C#N)cc3)CC2)nnc1[C@H]1C[C@@H](N)C1 [CBK306985]	109%
CC(C)c1nccn1-c1ccc(NC(=O)Cn2ccnc2)cc1 [CBK281381]	88.9%
COC(=O)NC(=S)Nc1ccc2c(c1)OCCO2 [CBK018644]	79%
COc1cccc(CNc2ccc3c4c(cccc24)CC3)c1OC [CBK269688]	92.5%
Cc1cc(-c2nnc(SCc3ccc(Cl)cc3)n2C)no1 [CBK067720]	112%
O=C(CC(C(=O)O)n1cncn1)c1ccc(Br)cc1 (stereo not shown) [CBK269305]	103%
CN(C(=O)c1cc(-c2cccs2)[nH]n1)c1ccccc1 [CBK288115]	86.1%
COc1ccccc1CN(Cc1cccs1)C(=O)Cn1cnnn1 [CBK305866]	96.5%
CC(C)Nc1cccnc1N(C)C1CCN(C(=O)c2cc(Br)c[nH]2)CC1 [CBK016797]	105%
O=C(O)c1cc(S(=O)(=O)NCCCN2CCOCC2)ccc1Cl [CBK299804]	96.8%
Cc1nn(CCC#N)c(C)c1CCC(=O)NCc1cn2ccccc2n1 [CBK304540]	88.1%
Cn1c(COc2ccccc2)nnc1SCC(=O)c1ccc(-c2ccccc2)cc1 [CBK267426]	87.9%
CC1=NN(c2ccc(Cl)cc2)C(=O)/C1=C\Nc1nnn[nH]1 [CBK262407]	91%
Cn1ncc(N2CCC(CNC(=O)Cc3ccc(O)c(Cl)c3)C2)cc1=O (stereo not shown) [CBK307689]	113%
CC(=O)N1CCc2cc(-c3cc4ccccn4c3)ccc21 [CBK285224]	104%
COc1cccc(CNCc2ccco2)c1OCc1ccccc1F [CBK270271C]	92.6%
CCOC(=O)N1CCN(C(=O)CCC(=O)O)CC1 [CBK287075]	97.3%
Cc1nc2c(c(=O)[nH]1)CCN(Cc1cn(C(C)C)c3ccccc13)C2 [CBK283991]	105%
CCOc1ccc(NC(=O)NC(CC)c2cnn(C)c2)cc1Cl (stereo not shown) [CBK307262]	107%

Compound	viability at 28.5 h, 10 µM
FC(F)(F)c1cccc(-c2nccnc2NCCCN2CCOCC2)c1 [CBK037288]	97.6%
NNC(=O)c1ccc(Oc2ccc(C(=O)NN)cc2)cc1 [CBK260995]	85.7%
COc1cccc(C(=O)N2CCN(C(=O)c3cccc(F)c3)CC2)c1OC [CBK263316]	105%
Cc1nn(C)cc1C(=O)N1CCCCC1c1nc2ccccc2[nH]1 (stereo not shown) [CBK283779]	84.7%
COc1ncc(-c2nccnc2OC)c(OC)n1 [CBK106744]	94.2%
CCN(Cc1ccccc1)C(=O)Nc1ccc2c(c1)OCCO2 [CBK155231]	100%
O=S(=O)(Nc1ccc(N2CCNCC2)c2ccccc12)c1cc(Cl)sc1Cl [CBK003116C]	93.9%
COC(=O)c1ccc(N2C(=O)CC(SCCc3nc4ccccc4[nH]3)C2=O)cc1 (stereo not shown) [CBK267188]	88.5%
Cc1ccccc1-c1cncc(C2CCN(C(=O)Cc3c[nH]c4ccccc34)CC2)n1 [CBK286148]	79.4%
O=C(O)COCC(=O)N1CCN(c2ccccc2Cl)CC1 [CBK268155]	108%
CSCCC(C(=O)O)N1C(=O)c2ccccc2C1=O (stereo not shown) [CBK218448]	102%
CCCCc1ccc(-c2cnc(N)c3ncccc23)cc1 [CBK067588]	75.7%
Cn1ncc2c1CCCN(C(=O)c1ccccc1C(F)(F)F)C2 [CBK282251]	84.1%
Cc1ccc(-c2ccc(CCC(=O)O)[nH]2)cc1 [CBK264820]	109%
COc1cc(CNc2ccc(N3CCOCC3)c(Cl)c2)ccc1OCc1ccccc1F [CBK074392]	93.6%
CC1=C[C@@H](CNS(C)(=O)=O)[C@H](C(C)C)C[C@H]1CC(=O)Nc1ccccn1 [CBK289208]	89.3%
CN1CCN(C(=O)c2n[nH]c3c2CCCC3)C(Cc2ccc(-c3cccs3)cc2)C1=O (stereo not shown) [CBK285812]	101%
Nc1ncc(-c2cccc(F)c2)nc1-c1ccc(C(=O)N2CCOCC2)cc1 [CBK064131]	88.4%
Cn1cc(CCC(=O)NC(Cc2ccncc2)[C@H]2C[C@H](O)C2)cn1 (stereo partly shown) [CBK307292]	82.4%
CCN(C(C)=O)c1nc(CN2CCOC(c3ccc(F)cc3)C2)cs1 (stereo not shown) [CBK306213]	94.3%
COCCc1nsc(N2CCC(N(C)c3cccnn3)CC2)n1 [CBK304701]	94.1%
O=C(Nc1ccccc1C(=O)N1CCCC1)c1cc(=O)[nH]c2ccccc12 [CBK295664]	99.2%

Compound	viability at 28.5 h, 10 µM
CS(=O)(=O)c1ccc(-n2ncc(-c3ccc(C(F)(F)F)cc3)n2)cc1 [CBK112698]	90%
CC(C)Nc1nc2ccccc2nc1OCCCN(C)C [CBK113416]	108%
Cc1cccc(C)c1NC(=O)CN1CCC(Oc2cncc(OCCN3CCOCC3)n2)C1 (stereo not shown) [CBK084489]	95.5%
Cn1ccnc1CN1C[C@@H]2CCCN2C[C@@H]1Cc1ccccc1 [CBK283202]	91.1%
Cc1ccc(-c2nn(-c3cc(N4CCN(CCO)CC4)ccc3[N+](=O)[O-])c(=O)c3ccccc23)cc1C [CBK263713]	82.6%
CC1(C)CCN(Cc2nnnn2-c2ccc(S(C)(=O)=O)cc2)C1 [CBK306179]	94.7%
CC(=O)COc1cc(OCC(C)=O)c2c3c(c(=O)oc2c1)CCC3 [CBK307219]	85.1%
COc1ccc([C@@]23CC[C@@H](NC(=O)Nc4cc(C)ccc4F)C[C@@H]2N(C)CC3)cc1OC [CBK036509T]	102%
CSc1nc(C)c(CCC(=O)N(C)Cc2c(C)nn(-c3ccccc3)c2C)c(=O)[nH]1 [CBK297925]	84.5%
Cc1ccc(-c2nc(C3CCN(C(=O)NC(C)C)CC3)n3ccccc23)cc1 [CBK046861]	95%
O=C(Nc1ccon1)c1nn(-c2ncccn2)c2ccccc12 [CBK048513]	95.3%
COc1ccc2cc(C)c3n[nH]c(=O)n3c2c1 [CBK283765]	89%
Cc1nnc(SCc2cc(=O)[nH]c(N3CCN(Cc4ccccc4)CC3)n2)s1 [CBK268837]	104%
CC(=O)N1CCN([C@H]2[C@@H]3OC[C@@H](O3)[C@@H](NC(=O)NC3CCCCC3)[C@@H]2O)CC1 [CBK288810]	101%
CC(Oc1ccc(F)cc1)C(=O)Nc1ccc(S(N)(=O)=O)cc1 (stereo not shown) [CBK265506]	92.3%
Cc1ccc(C(=O)C2=C(O)C(=O)N(CCCn3ccnc3)C2c2cccc([N+](=O)[O-])c2)cc1 (stereo not shown) [CBK263319]	115%
CCN(Cc1ccccc1)c1ccc(C2NC(=O)NC(O)(C(F)(F)F)C2C(=O)c2cccnc2)cc1 (stereo not shown) [CBK264999]	91.7%
COc1ccc(Nc2cc(-c3ccco3)ncn2)c(OC)c1 [CBK090761]	105%
Cc1nn(C)cc1S(=O)(=O)N1CCc2cc(Cl)ccc21 [CBK282802]	107%
O=S(=O)(c1ccc(OC(F)(F)F)cc1)N1CCc2ccccc21 [CBK044279]	96.7%
Nc1nonc1-c1nc2ccccc2n1Cc1cc2c(cc1Br)OCO2 [CBK267961]	105%

Same assay, conditions: human, hela cells, % viability, bulk resorufin, single well

Compound	viability at 28.5 h, 10 µM
O=C1NC(=O)N(c2ccc(F)cc2)C(=O)/C1=C/c1ccccc1OCc1ccc([N+](=O)[O-])cc1 [CBK263846]	93.5%
